In patent US4699926A, “Compounds useful in treating sickle cell anemia” (Merck & Co., Inc., priority 1986, dated 1987):
Structures can show the parent of a compound that is named as a salt.

Legend:
sickle hemoglobin (HbS) = molecular target: T1, sickle hemoglobin (HbS) (Homo sapiens, UniProt P68871+P69905, E7V); assay: Solubility assay (Csat assay): solubility of deoxygenated sickle hemoglobin in the presence of drug; format: biochemical
T1 construct: from tissue
Experimental: One major assay for evaluating antisickling agents involves measuring their effect on increasing the concentration at which sickle hemoglobin forms a gel. This is called the solubility or Csat assay.
The solubility assay (Csat assay) measures the ability of a compound to increase solubility of sickle hemoglobin (HbS).
In order to confirm the effectiveness of these compounds in reducing the effect of sickle cell anemia, tests were performed. The materials were tested according to the assay (Csat) developed by Hofrichter et al. (J. Hofrichter, P.D. Ross and W. A. Eaton Proc. Natl. Acad. Sci. USA, 73 30-35, 1976). This assay involves deoxygenation of concentrated sickle hemoglobin with dithionite in the presence of different concentrations of the drugs being tested Samples were then sealed in quartz epr tubes under anaerobic conditions and spun at about 150,000 × g for about 21/2 hours at about 35° C. in an ultracentrifuge. This procedure pellets the polymerized HbS (sickle hemoglobin) to the bottom of the tubes and the supernatant (soluble HbS) was measured in the laboratory as the cyanmethemoglobin derivative. […] Activity is reported as a ratio of the HbS solubility with the particular drug to HbS solubility with no drug i.e. control. The higher the ratio the greater degree of activity of the drug. The numbers in parenthesis are % increase in the solubility of HbS; again the higher the number, the greater the activity of the drug. The results ofthe compound of Example 9, is shown as a representative example of the compounds of this invention.

[1] = Tests of transport across erythrocyte membranes; format: in vitro ADME, human; conditions: red blood cell membrane
HbS = assay: Chromatographic separation: tight covalent binding between HbS and the agent; set-up: species or system human

Row | Structure (SMILES) | activation at 3000 µM (sickle hemoglobin (HbS); 3 mM, read-out: % increase in Solubility (of HbS)) [%] | fold induction at 3000 µM (sickle hemoglobin (HbS); 3 mM, read-out: Ratio of the HbS Solubility with the Drug Compared to HbS Solubility Without Drug) | activation at 5000 µM (sickle hemoglobin (HbS); 5 mM, read-out: % increase in Solubility (of HbS)) [%] | fold induction at 5000 µM (sickle hemoglobin (HbS); 5 mM, read-out: Ratio of the HbS Solubility with the Drug Compared to HbS Solubility Without Drug) | activation at 7000 µM (sickle hemoglobin (HbS); 7 mM, read-out: % increase in Solubility (of HbS)) [%] | fold induction at 7000 µM (sickle hemoglobin (HbS); 7 mM, read-out: Ratio of the HbS Solubility with the Drug Compared to HbS Solubility Without Drug) | activation at 9000 µM (sickle hemoglobin (HbS); 9 mM, read-out: % increase in Solubility (of HbS)) [%] | fold induction at 9000 µM (sickle hemoglobin (HbS); 9 mM, read-out: Ratio of the HbS Solubility with the Drug Compared to HbS Solubility Without Drug) | solubility ratio compared with other antisickling agents (in words) (sickle hemoglobin (HbS); low concentrations (5 mM), versus dichlorobenzyloxyacetic and p-bromobenzyloxyacetic acids) | transport across erythrocyte membranes (in words) [1] | covalent binding between the HbS and the therapeutic agent (in words) (HbS)
1 | C=C(CC)C(=O)c1ccc(OCC(=O)NCC(=O)O)c(Cl)c1Cl [Example 9, N-{[2,3-Dichloro-4-(2-methylenebutyryl)phenoxy]-acetyl}glycine] | 27 | 1.11 | 36 | 1.15 | 56 | 1.22 | 82 | 1.33 |  |  | 
2 | C=C(CC)C(=O)c1ccc(OCC(=O)NCC(=O)O)c(Cl)c1Cl [sodium salt of N-{([2,3-dichloro-4-(2-methylenebutyryl)-phenoxy]acetyl)}glycine] |  |  |  |  |  |  |  |  | higher solubility ratio than other antisickling agents, such as, dichlorobenzyloxyacetic and p-bromobenzyloxyacetic acids | confirmed the ability of the agent to cross the red blood cell membrane and react with hemoglobin | desired tight covalent binding between the HbS and the therapeutic agent had occurred
